# Columns and labels:
# Assay type in all cases: cell-based
# [1] = system: bovine aortic vascular endothelial cells; assay: Lumen formation test (cell shrinkage), cell pattern sandwiched between substrate and GFR Matrigel (configuration of FIG. 3); set-up: key: ∘: Large inhibition effect; Δ: Small inhibition effect; x: No inhibition effect; conditions: inhibitor previously added; shrinkage of multiple cells observed, GFR Matrigel
# Experimental: (§1) An autoclave-sterilized substrate was arranged within a culture container and then an appropriate amount of MEM medium containing 5% fetal calf serum was added. 2.0×10^5 bovine aortic vascular endothelial cells were seeded per substrate. After 72 hours of culture, cells adhered only to oxidatively degraded regions and reached confluency on the lines each having a width of 60 μm.
# 200 μl of ice-cooled Growth Factor Reduced (GFR) Matrigel (Becton, Dickinson and Company) was spread over a culture container and then allowed to stand at room temperature for approximately 1 minute. The substrate was gently placed with its cell adhesion face down onto the matrigel. The resultant was allowed to stand for approximately 5 minutes while maintaining this condition. After complete gelling, MEM medium containing 5% fetal calf serum was added and then the substrate was immersed in the medium. The culture container was transferred into an incubator (37° C., 5% CO2) and then cells were cultured while being sandwiched between a substrate and matrigel. […] This is a phenomenon that is characteristically observed when vascular endothelial cells undergo lumen formation in response to differentiation signals coming from the extracellular matrix. When a vascularization inhibitor had been previously added to the three-dimensional culture system, shrinkage of multiple cells was inhibited or not inhibited according to the relevant pharmacologic action (Table 1). This means that the effect of a drug on lumen formation can be efficiently tested via observation of cell shrinkage that is observed at the initial stage of differentiation. This test method could also be performed for normal human umbilical vein endothelial cells in completely the same manner.
# [2] = system: Normal human (adult) dermal fibroblasts; assay: Cell migration and proliferation of linear cell pattern embedded in collagen gel (configuration of FIG. 3); conditions: 10 μM in culture solution; observed at 3, 6, 9 and 21 hours; compared with culture solution and DMSO systems
# Experimental: The above dish was sterilized with 70% ethanol. Normal human (adult) dermal fibroblasts (KF-4109, Cascade Biologics) dispersed in a culture solution (basal medium M-106-500S, additive agent KE-6350, and Cascade Biologics/KURABO) was seeded at 4×10^5 cells per dish. Cells were cultured using an incubator under conditions of 37° C. and 5% CO2 for 18 hours. A linear pattern formed by cells that had adhered was obtained.
# Cell aggregates were embedded into gel that had been prepared using the collagen gel kit used in Example 5 and then three-dimensional culture was performed with the configuration of FIG. 3. After 30 minutes of gelling at 37° C., three types of culture were performed using (1) a system containing the above culture solution, (2) a system containing a culture solution prepared by adding 10 μM inhibitor PP2 to the above culture solution, and (3) a system containing a culture solution containing DMSO with the same concentration as that of DMSO (used as a solvent for preparing 1 mM stock solution of PP2) contained in the above-prepared culture solution containing PP2.
# [3] = system: bovine aortic vascular endothelial cells; assay: Vascularization test, three-dimensional culture of cell pattern in collagen gel (configuration of FIG. 2); conditions: 50 μM added to three-dimensional culture system, medium with proliferation factors
# Experimental: as §1, with “48” for “72”, “culture within an incubator (37° C., 5% CO2),” for “culture,”
# A collagen solution was prepared on ice using a collagen gel culture kit (Cellmatrix I-A, Nitta gelatin). 500 μl of the solution was spread flatly over a 28 mm×33 mm well, followed by 10 minutes of gelling at 37° C. 2 ml of MEM medium containing 5% fetal calf serum was added to the gel. The substrate was caused to sink while upside-down in the medium, so that cells that had adhered to the substrate were caused to come into contact with collagen gel at the bottom. After 4 hours of culture within an incubator, the substrate was carefully removed using a pair of tweezers. […] The medium was removed by suction, 250 μl of the collagen solution was applied in layers to the cells, and then gelling was performed at 37° C. for 10 minutes. […]
SMILES,Inhibition effect (inhibiting lumen formation) [1],cell migration [2],cell proliferation [2],vascularization [3]
N=C(N)NC(=O)c1nc(Cl)c(N)nc1N [Amiloride],x,,,
O=c1cc(N2CCOCC2)oc2c(-c3ccccc3)cccc12 [LY294002],Δ,,,
CN(C)c1ccc(O)c2c1C[C@H]1C[C@H]3[C@H](N(C)C)C(O)=C(C(N)=O)C(=O)[C@@]3(O)C(O)=C1C2=O [Minocycline],x,,,
CC(C)(C)n1nc(-c2ccc(Cl)cc2)c2c(N)ncnc21 [PP2],∘,significantly suppressed,significantly suppressed,
Cc1ccc(C(=O)Nc2ccc(S(=O)(=O)O)c3cc(S(=O)(=O)O)cc(S(=O)(=O)O)c23)cc1NC(=O)c1cccc(NC(=O)Nc2cccc(C(=O)Nc3cc(C(=O)Nc4ccc(S(=O)(=O)O)c5cc(S(=O)(=O)O)cc(S(=O)(=O)O)c45)ccc3C)c2)c1 [Suramin],x,,,completely inhibited
C[C@@H](N)[C@H]1CC[C@H](C(=O)Nc2ccncc2)CC1 [Y27632],x,,,
